Experimental data published in US9051318B2, “Pyrido [2, 3-B] pyrazine compounds and their therapeutical uses such as for inhibiting ATP consuming proteins and treating diseases associated therewith” (Merck Patent GmbH, priority 2011, dated 2015).

Tests used:
GST-ALK5 = molecular target: T1, GST-ALK5 (Homo sapiens, UniProt P36897); experiment: In-vitro (enzyme) kinase flashplate assay, TGF-beta receptor kinase (Example 9); format: biochemical; conditions: GST-ALK5, GST-SMAD2 substrate, 3 mM ATP, 30° C. 45 min; read-out: TβR activity (Example 9)
T1 sequence (P36897 34-503): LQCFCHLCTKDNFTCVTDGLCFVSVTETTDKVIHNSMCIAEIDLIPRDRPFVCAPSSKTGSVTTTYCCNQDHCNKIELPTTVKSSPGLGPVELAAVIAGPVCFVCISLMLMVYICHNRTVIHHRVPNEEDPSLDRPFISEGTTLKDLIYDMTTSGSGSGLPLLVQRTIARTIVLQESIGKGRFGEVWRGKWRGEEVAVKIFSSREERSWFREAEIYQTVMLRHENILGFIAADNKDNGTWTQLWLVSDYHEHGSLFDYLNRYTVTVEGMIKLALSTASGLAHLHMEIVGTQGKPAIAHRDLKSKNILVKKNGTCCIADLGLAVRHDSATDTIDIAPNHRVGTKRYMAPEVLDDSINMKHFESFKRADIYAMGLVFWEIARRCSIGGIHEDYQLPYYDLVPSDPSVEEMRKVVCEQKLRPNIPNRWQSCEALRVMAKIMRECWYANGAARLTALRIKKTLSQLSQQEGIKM
Procedure: The kinase assay was carried out as 384-well flashplate assay. 31.2 nM of GST-ALK5, 439 nM of GST-SMAD2 and 3 mM of ATP (with 0.3 μCi of ^33P-ATP/well) were incubated in a total volume of 35 μl (20 mM of HEPES, 10 mM of MgCl2, 5 mM of MnCl2, 1 mM of DTT, 0.1% of BSA, pH 7.4) without or with test substance (5-10 concentrations) at 30° C. for 45 min. The reaction was stopped using 25 μl of 200 mM EDTA solution, filtered with suction at room temperature after 30 min, and the wells were washed with 3 times 100 μl of 0.9% NaCl solution. Radioactivity was measured in the TopCount. The IC50 values were calculated using RS 1.

[1] = tested on: TGF-beta-induced phosphorylation of Smad2 (Ser465/467) and Smad3 (Ser423/425) in Mv1-Lu cells; experiment: Inhibition of Smad2/3 phosphorylation in Mv1Lu cells (Example 10); format: cell-based, mink Mustela vison; conditions: Neogale vison, TGF-beta 1 5 ng/ml, phospho-Smad2/3 ELISA, read-out: TβR activity (Example 10)
Procedure: This assay was used to determine the inhibitory potency of compounds on TGF-beta-induced phosphorylation of Smad2 (Ser465/467) and Smad3 (Ser423/425). Mv1-Lu cells (lung epithelial cell line from mink Mustela vison; ATCC number: CCL-64) were seeded in DMEM (Invitrogen) supplemented with 10% fetal bovine serum (Pan Biotech) at a defined cell density in 24-well or 96-well plates (24-well plate: 1.5×10^5 cells per well; 96-well plate: 4×10^4 cells per well). Cell cultures were incubated in DMEM at 37° C. and 10% CO2. On the next day, the medium was replaced and cells were serum-starved for 16-20 hours. The following day, serial dilutions of compounds were added to the wells, pre-incubated for 1.5 hrs before recombinant TGF-beta 1 ligand (final concentration 5 ng/ml; R&D systems) was added. After one hour of ligand stimulation, lysates were prepared and analyzed using an enzyme-linked immunosorbent assay kit (PathScan Phospho-Smad2 Kit, Cell Signaling Technologies). The ELISA detects phosphorylated Smad2 as well as phosphorylated Smad3 with the phospho-specific antibody. TGF-beta stimulated cells and unstimulated cells served as positive and negative controls (100% and background control). The concentration of the vehicle DMSO was kept constant at 0.2% (v/v) in all wells. Dose-response relationships were fitted using curve fitting algorithms of the RS1 statistics software package (Brooks Automation Inc. RS/1—Statistical Tools Handbook. Release 6.2) to determine the concentration at which half-maximal inhibition (IC50) of Smad2/3 phosphorylation was achieved.

| IC50 (GST-ALK5) [nM] | IC50 [1] [nM] | Structure (SMILES) |
| --- | --- | --- |
| < 1000 | < 1000 | Fc1ccccc1-c1cc(Nc2ccncc2)c2nccnc2n1 [Compound 1, [6-(2-Fluorophenyl)-pyrido[2,3-b]pyrazin-8-yl]-pyridin-4-yl-amine] |
| < 1000 | < 1000 | Fc1ccc(Cl)cc1-c1cc(Nc2ccncc2)c2nccnc2n1 [Compound 2, [6-(5-Chloro-2-fluoro-phenyl)-pyrido[2,3-b]pyrazin-8-yl]-pyridin-4-yl-amine] |
| < 1000 | < 1000 | Nc1nccc2c(-c3cc(-c4ccccc4F)nc4nccnc34)nccc12 [Compound 3, 5-[6-(2-Fluorophenyl)-pyrido[2,3-b]pyrazin-8-yl]-[2,6]naphthyridin-1-ylamine] |
| < 1000 | < 1000 | Nc1nccc2c(-c3cc(-c4ccccc4F)nc4nccnc34)cccc12 [Compound 4, 5-[6-(2-Fluorophenyl)-pyrido[2,3-b]pyrazin-8-yl]-isoquinolin-1-ylamine] |
|  | < 1000 | Nc1nccc2c(-c3cc(-c4cc(Cl)ccc4F)nc4nccnc34)nccc12 [Compound 5, 5-[6-(5-Chloro-2-fluorophenyl)-pyrido[2,3-b]pyrazin-8-yl]-[2,6]naphthyridin-1-ylamine] |
| < 1000 | < 1000 | Nc1ncc(-c2cc(-c3ccccc3F)nc3nccnc23)c2ccncc12 [Compound 6, 4-[6-(2-Fluorophenyl)-pyrido[2,3-b]pyrazin-8-yl]-[2,7]naphthyridin-1-ylamine] |
|  | < 1000 | Nc1nccc2c(-c3cc(-c4cc(F)ccc4F)nc4nccnc34)nccc12 [Compound 8, 5-[6-(2,5-Difluoro-phenyl)pyrido[2,3-b]pyrazin-8-yl]-2,6-naphthyridin-1-amine] |
| < 1000 | < 1000 | CN1CCC(n2cc(-c3cncc(-c4cc(-c5ccccc5F)nc5nccnc45)c3)cn2)CC1 [Compound 9, 6-(2-Fluorophenyl)-8-{5-[1-(1-methyl-piperidin-4-yl)-1H-pyrazol-4-yl]-pyridin-3-yl}-pyrido[2,3-b] pyrazine] |
| < 1000 | < 1000 | Cn1cc(-c2cncc(-c3cc(-c4ccccc4F)nc4nccnc34)c2)cn1 [Compound 10, 6-(2-Fluorophenyl)-8-[5-(1-methyl-1H-pyrazol-4-yl)-pyridin-3-yl]-pyrido[2,3-b] pyrazine] |
| < 1000 | < 1000 | OCCn1cc(-c2cncc(-c3cc(-c4ccccc4F)nc4nccnc34)c2)cn1 [Compound 12, 2-[4-[5-[6-(2-Fluorophenyl)pyrido [2,3-b]pyrazin-8-yl]-3-pyridyl]pyrazol-1-yl]ethanol] |
| < 1000 | < 1000 | Fc1ccc(Cl)cc1-c1cc(Nc2ccnc3ccoc23)c2nccnc2n1 [Compound 14, N-[6-(5-Chloro-2-fluorophenyl)pyrido [2,3-b]pyrazin-8-yl]furo[3,2-b]pyridin-7-amine] |
